Consider 2 substances from US20240052300A1, “DIFFUSION GRADIENT ASSAY FOR ANTI-CD3-CONTAINING MOLECULES” (priority 2020, published 2024).

Data set [1] relates to BiTE® recombinant protein. The protocol: The ability of the CD3-AF594 peptide conjugate to be used for diffusion gradient assays to detect secretion of recombinant CD3 binders on Berkeley Light's nanofluidic chip (FIG. 2A) was assessed next. Cells expressing the BiTE® modality were loaded onto a BLI platform using a standard cell line development workflow. Single cells were deposited in Nanopens™, and subsequently cultured under perfusion for the duration of 6 days. The CD3 reagent was used in a diffusion gradient assay using optimized settings as described herein.

A further data set deals with IgG-fusion protein. The settings on record: day 5 on chip; FIG. 3A-C.
In the next data set the test system is BiTE®-Fc fusion. Nature of the data set: On-chip CD3 diffusion gradient assay, BiTE-Fc secreting cells. To be noted: day 5 on chip; FIG. 3A,B.
The test system of data set [2] is recombinant canonical BiTE® protein. Nature of the data set: Size exclusion chromatography with fluorescence detection of CD3-AF488 bound to secreted BiTE. The class given is binding. To be noted: secretion medium mixed with reagent, capture chromatography, FIG. 1B. On the procedure: 100 μl of 0.2 μm filtrated mammalian cell culture samples containing expressed BiTE® constructs featuring human CD3e binding binders were mixed with 2.5 μl peptide-fluorochrome conjugate and transferred into autosampler vials. The vials were placed onto an autosampler connected to an Ultra High Performance Liquid Chromatography ACQUITY UPLC device (Waters, Eschborn, Germany) featuring a fluorescence detector. An analytical size exclusion chromatography BEH200 SEC 1.7 μm column (Waters, Eschborn, Germany) was connected to the UHPLC and equilibrated with a water-based buffer system containing 10 mM Citric Acid, 75 mM Lysine HCl, adjusted to pH 7.0. 10 μl of each prepared sample were applied to the column and eluted using isocratic elution. Detection was performed by using fluorescence detection at 490 nm excitation and 520 nm emission wavelength. […] Both, unpurified secretion medium and purified material were subsequently analyzed by size exclusion chromatography equipped with fluorescence detector (FIG. 1B, C). This setup allowed monitoring of the elution profile of the CD3-AF488 peptide and its bound protein complexes in the context of the whole protein content present in analyzed samples. The UV absorbance (A280 nm) elution profile of purified material allowed for identification of BiTE® monomers, dimers and HMW species (FIG. 1B).

Side-chain parts run from the residue outwards. [ ]: non-standard residue; d: D form. pGlu = O=C1CC[C@@H](C(=O)O)N1

Experimental for BiTE®-Fc fusion: (§1) The CD3 diffusion assay peptide reagent was resuspended in DMSO at 1 mg/ml and stored protected from light at −20° C. for long term storage. For short term storage the assay reagent was further diluted to 4 μg/ml in PBS and stored at 4° C. Prior executing the diffusion gradient assay to detect BiTE® secretion on nanofluidic chip the CD3 diffusion assay reagent was diluted in cell culture medium to 0.2 μg/ml concentration, filtered through 22 μm filter, transferred to 96 well plate and incorporated on the chip. The assay reagent was perfused on the chip at 0.014 μl/sec flow rate for the duration of 45 minutes. In FIG. 4, once the equilibration step was complete the assay reagent was flushed out with 250 μl of cell culture medium at a 20/sec flow rate followed by an additional flush with the cell culture medium at the 0.1667 μl/sec flow rate for the duration of 20 mins. The chip was then imaged through TRED filter cube using 900 ms exposure time and 100% illumination settings.
(§2) In FIG. 2, the CD3 diffusion assay reagent was used at 0.125 μg/ml final concentration. […]
(§3) For CD3 diffusion assays shown in FIGS. 3 and 4, the reference assay was run on an empty chip in order to generate reference images used for normalizing the CD3 diffusion assay score against chip position effects and background fluorescence signal. […]
(§4) Next, the specificity of the BiTE® diffusion gradient assay was assessed. […]
Experimental for IgG-fusion protein: as §1, §2, §3, §4

Regarding “Pyroglutamate-DGNEEMGGC-AF594 [CD3-AF594 conjugate]”, in data set [1] (6 days perfusion culture, reagent 0.125 μg/ml, FIG. 2B), the “fluorescent signal in pens with BiTE® expressing cells vs empty pens” value is listed as “High fluorescent signal”. Further, the “detection of secretion of BiTE® expressing cell lines” value in data set [1] (day 5 on chip, FIG. 3A-C) is “efficiently detected secretion”. Besides, the “detection of secretion of the IgG-fusion protein” value in the data set on IgG-fusion protein is “failed to detect secretion”. The “detection of secretion of the BiTE®-Fc protein product” value in the data set on BiTE®-Fc fusion is “detected”.

For “CD3-AF488 peptide ([pGlu]DGNEEMGGC([C5 maleimide-Alexa Fluor 488])-NH2)”, the “complex formation with BiTE® recombinant protein (fluorescent SEC elution profile)” value in data set [2] is “formed a complex with the BiTE® recombinant protein”.
